The subject of this experiment is dermis equivalent model consisting of a matrix of collagen seeded with normal human fibroblasts. The experiment is described as follows: Dermo-decontracting effect on dermis equivalent model (spontaneous contraction of collagen gel). The format is cell-based. The following applies: for activity as dermo-decontracting agent in the test of Example 1: dermis equivalent test presented in Example 1.

As for `CCOC(=O)C1=C(C)NC(C)=C(C(=O)OC)C1c1cccc([N+](=O)[O-])c1` (stereo not shown) [nitrendipine], the “activity as dermo-decontracting agent in the test of Example 1” value (shortened to “activity as dermo-decontracting agent”) was “not active”.
Consider `O=C(O)/C=C\C(=O)O.c1ccc(CCCCN2CCC(c3ccccc3)CC2)cc1` [maleic acid salt of 4-phenyl-1-(4-phenylbutyl)piperidine], for which the “reduction of the contraction of the fibroblasts compared with the control” value (1 μM test compound, on average over the duration of the experiment (0, 4, 8 and 24 hours), experiment repeated three times) worked out at 17%.
For the molecule `CN1C(=O)CN=C(c2ccccc2)c2cc(Cl)ccc21` [diazepam], the “activity as dermo-decontracting agent” value is given as “not active”.
On to `COc1ccc([C@@H]2Sc3ccccc3N(CCN(C)C)C(=O)[C@@H]2OC(C)=O)cc1` [diltiazem], for which the “activity as dermo-decontracting agent” value was “not active”.

(Values after US7629359B2, “Use of piperidine derivatives as dermo-decontracting agents” (L'Oreal, priority 2004, dated 2009).)
